We go through seven compounds from patent publication US4510140A, “Therapeutically effective ω-(4-(2-pyridyl)-piperazino)-alkanoylanilides” (priority 1981, dated 1985).

Each structure is given as a SMILES string. Read-outs that look alike come from different tables or passages of the source.

Data set [1] can be described thus: LD50 determined in the mouse (C. S. Weil method). Further details: unit not given here. As to conditions: in vivo. The text has this:
Accordingly, the present invention also features pharmaceutical compositions comprising a pharmaceutically effective amount of a compound having the structural formula (I) as above-defined, or a pharmaceutically acceptable salt thereof, in admixture with conventional pharmaceutically acceptable dileunt or carrier. Suitable such carriers and unit dosage amounts will be apparent to those skilled in this art. Compare, for example, Remington's Pharmaceutical Sciences, 4th Edition (1970). The LD50 of the alkanoylanilides according to the invention was determined in the mouse, both in C. S. Weil, following the method describedBiometrics, 8, 249 (1952). The results obtained were as follows, with the designating for the active compounds corresponding to those set forth in the following specific examples: […]

Data set [2] relates to bronchospasm induced by histamine. The data set is described as follows: Antibronchospastic activity (Konzett and Rossler): inhibition of bronchospasm induced in anaesthetized guinea-pig by histamine. It counts as in vivo. As to conditions: Cavia porcellus, iv, 1 min, read-out: ED75 (inhibition of histamine-induced bronchospasm). As to the method: The antibronchospastic activity was determined according to the method of Konzett and Rossler [Arch. exp. Path. Pharmakol., 195, 71 (1940)], determining the inhibition of bronchospasm induced in anaesthetized guinea-pig by histamine. For this purpose, the bronchospasms were induced by administering intravenously to the animals 0.5-2.5 μg/Kg of hystamine. Inhibition (ED75) was determined one minute after the injection of the drug under test, and the results obtained are reported in the following Table III: […]

Data set [3] relates to passive cutaneous anaphylaxis. In words: PCA Test: passive cutaneous anaphylaxis induced in the rat with homologous antibodies (Goose and Blair); inhibition of spot areas. Format: in vivo. The note with it: Rattus norvegicus, read-out: PCA Test - ED50 (inhibition of spot areas). The method, then:
In order to evaluate the antianaphylactic activity of the subject novel compounds, the method of Goose and Blair was followed, in which passive cutaneous anaphylaxis was induced in the rat with homologous antibodies [Immunology, 16, 749 (1969)]. Female albino rats were immunized intramuscularly with egg albumin and intraperitoneally with Hemophylus pertussis vaccine.
Twelve days after treatment, the animals were bled and the sera thus obtained were injected intradermally into another group of rats. Twenty-four hours later, the animals were challenged with an i.v. solution of ovoalbumin and Evans blue dye, and sacrificed after 30 minutes. The test drugs were administered by different routes of administration and at different times before the challenge. Inhibition of spot areas (ED50) was determined.

Consider `CC1CN(c2ccccn2)CCN1CCC(=O)Nc1ccc([N+](=O)[O-])cc1` (stereo not drawn) [compound 30], for which the LD50 in data set [1] (ip) stood at 0.42; in data set [1] (po, os), 1.2. Also, in data set [2], the ED75 turned out to be 1.75 µmol/kg. In data set [3] (po), the ED50 came out at 230 µmol/kg.
As for `O=C(CCN1CCN(c2ccccn2)CC1)Nc1ccccc1Cl` [compound 33], the LD50 in data set [1] (ip) was 1.29; in data set [1] (po, os) it was 2.64. Moreover, the ED75 in data set [2] stood at 1.12 µmol/kg. Also, the ED50 in data set [3] (ip) came out at 151 µmol/kg; in data set [3] (po), 47 µmol/kg.
In the case of `O=C(CCN1CCN(c2ccccn2)CC1)Nc1ccc(Cl)cc1` [compound 35], the LD50 is 0.62 in data set [1] (ip) and 0.96 in data set [1] (po, os). In data set [2], the ED75 came to 2.27 µmol/kg. The ED50 in data set [3] (po) amounted to 39 µmol/kg.
On the same counts, the results for `O=C(CCN1CCN(c2ccccn2)CC1)Nc1c(Cl)cccc1Cl` [compound 36] are 0.8, 1.24, 0.4 µmol/kg and 29 µmol/kg.
Taken in the same sequence, the figures for `CC(=O)c1ccccc1NC(=O)CCN1CCN(c2ccccn2)CC1` [compound 39] were 2.3, above 6.91, 0.89 µmol/kg and 73 µmol/kg.
On the same counts, the results for `CC(=O)c1cccc(NC(=O)CCN2CCN(c3ccccn3)CC2)c1` [compound 40] are 0.68, 1.11, 0.2 µmol/kg and 73 µmol/kg.
`CCOC(=O)c1ccc(NC(=O)CCN2CCN(c3ccccn3)CC2)cc1` [compound 41]: the LD50 in data set [1] (ip) worked out at 0.66; in data set [1] (po, os), 0.92. Also, the ED75 in data set [2] is 0.17 µmol/kg. Besides, the results for the ED50 in data set [3] (ip) and in data set [3] (po) were 220 µmol/kg and 28 µmol/kg, respectively.

Usually ED50 stands for the dose that gives a 50% effect, or the effect in half of the subjects.
